Assays:
[1] = system: subcutaneous teratomas comprising ALINK-modified mouse C2 cells; experiment: Teratoma assay, ALINK-modified mouse C2 ES cells; type: in vivo
Procedure: (§1) Matrigel Matrix High Concentration (Corning) was diluted 1:3 with cold DMEM media on ice. 5-10×10^6 cells were suspended into 100 ul of 66% DMEM+33% Matrigel media and injected subcutaneously into either or both dorsal flanks of B6N mice (for mouse C2 ES cells) and NOD-SCID mice (for human ES cells). Teratomas formed 2-4 weeks after injection. Teratoma size was measured by caliper, and teratoma volume was calculated using the formula V=(L×W×H)π/6. GCV/PBS treatment was performed by daily injection with 50 mg/kg into the peritoneal cavity with different treatment durations. At the end of treatment, mice were sacrificed and tumors were dissected and fixed in 4% paraformaldehyde for histology analysis.

[2] = system: subcutaneous teratomas comprising ALINK-modified H1 ES cells; experiment: Teratoma assay, ALINK-modified human ES cells; type: in vivo, mouse (human ES cell graft); conditions: NOD scid gamma mouse hosts; two rounds of GCV (15 days + 40 days)
Procedure: as §1

[3] = system: ALINK-modified MMTV-PyMT-transformed mammary epithelial tumorigenic cell grafts; experiment: Mammary gland tumor assay; type: in vivo, mouse; conditions: B6N hosts; GCV 50 mg/kg every other day i.p.
Text: Chimeras of Cdk1^+/+, +/loxp-alink mouse C2 ES and CD-1 backgrounds were generated through diploid aggregation, and then were bred with B6N WT mice to generate Cdk1^+/+, +/loxp-alink mice through germline transmission. Cdk1^+/+, +/loxp-alink mice were bred with Ella-Cre mice to generate Cdk1^+/+, +/alink mice. Cdk1^+/+, +/alink mice were then bred with MMTV-PyMT mice (Guy et al., 1992) to get double-positive pups with mammary gland tumors and ALINK modification. Mammary gland tumors with fail-safe modification were isolated, cut into 1 mm^3 pieces, and transplanted into the 4th mammary gland of wild-type B6N females. GCV/PBS treatment was injected every other day at the dosage of 50 mg/kg into the peritoneal cavity with different treatment durations. Mammary gland tumor size was measured by calipers and calculated with the formula V=Length*Width*Height*π/6.

[4] = system: mixed culture of non-dividing neurons and dividing NEPs derived from Cdk1+/+,+/alink human CA1 ES cells; experiment: Neuronal progenitor vs. neuron killing assay; type: cell-based; conditions: GCV 10 uM every other day for 20 days
Procedure: Cdk1^+/+, +/alink human CA1 ES cells were differentiated to neural epithelial progenitor cells (NEPs). NEPs were subsequently cultured under conditions for differentiation into neurons, thereby generating a mixed culture of non-dividing neurons and dividing NEPs, which were characterized by immunostaining of DAPI, Ki67 and Sox2. GCV (10 uM) was provided to the mixed culture every other day for 20 days. Then, GCV was withdrawn from culture for 4 days before cells were fixed by 4% PFA. Fixed cells were immunostained for proliferation marker Ki67 to check whether all the leftover cells have exited cell cycle, and mature neutron marker beta-TublinIII.

[5] = system: homozygous Cdk1 dox-bridge knock-in mouse ES cells; experiment: Targeted cell growth of Cdk1 dox-bridge (EARC) ES cells; type: cell-based; conditions: withdrawal of doxycycline
Procedure: F3-bridge targeted cells were trypsinized and plated on gelatinized 24 well plates at a density of 5×10^4 cells per well. Starting one day after plating, cell counting was performed by trypsinizing 3 wells for each condition and counting live cells using a Countess automated cell counter (Life Technologies). Doxycycline was removed or reduced to 0.05 ng/ml 2 days after plating and live cells were counted every day up to 18 days in the different conditions.

Top2a-EARC ES cells = experiment: Targeted cell growth of Top2a-EARC ES cells; type: cell-based, mouse; conditions: withdrawal of doxycycline
Procedure: Top2a homozygously-targeted cells were trypsinized and plated on gelatinized 24 well plates at a density of 5×10^4 cells per well. Starting one day after plating, cells were exposed to different Dox concentrations (1 μg/ml, 0.5 μg/ml, 0.05 μg/ml and 0 μg/ml), the plate was analyzed in a IncucyteZoom system (Essen Bioscience) by taking pictures every two hours for 3-4 days and measuring confluency.

Cenpa-EARC ES cells = experiment: Targeted cell growth of Cenpa-EARC ES cells; type: cell-based, mouse; conditions: withdrawal of doxycycline
Procedure: Cenpa homozygously-targeted cells were trypsinized and plated on gelatinized 24 well plates at a density of 5×10^4 cells per well. Starting one day after plating, cells were exposed to different Dox concentrations (1 μg/ml, 0.5 μg/ml, 0.05 μg/ml and 0 μg/ml), the plate was analyzed in a IncucyteZoom system (Essen Bioscience) by taking pictures every two hours for 3-4 days and measuring confluency.

Birc5-EARC ES cells = experiment: Targeted cell growth of Birc5-EARC ES cells; type: cell-based, mouse; conditions: withdrawal of doxycycline
Procedure: Birc5 homozygously-targeted cells were trypsinized and plated on gelatinized 24 well plates at a density of 5×10^4 cells per well. Starting one day after plating, cells were exposed to different Dox concentrations (1 μg/ml, 0.5 μg/ml, 0.05 μg/ml and 0 μg/ml), the plate was analyzed in a IncucyteZoom system (Essen Bioscience) by taking pictures every two hours for 3-4 days and measuring confluence.

Eef2-EARC ES cells = experiment: Targeted cell growth of Eef2-EARC ES cells; type: cell-based, mouse; conditions: withdrawal of doxycycline
Procedure: Eef2 homozygously-targeted cells were trypsinized and plated on gelatinized 24 well plates at a density of 5×10^4 cells per well. Starting one day after plating, cells were exposed to different Dox concentrations (1 μg/ml, 0.5 μg/ml, 0.05 μg/ml and 0 μg/ml), the plate was analyzed in a IncucyteZoom system (Essen Bioscience) by taking pictures every two hours for 3-4 days and measuring confluence.

[6] = cited from earlier work

Nc1nc(O)c2ncn(COC(CO)CO)c2n1 [GCV, ganciclovir]
effect on quiescent cells of the teratoma ([1]; GCV 50 mg/kg daily i.p.): did not affect quiescent cells of the teratoma | teratoma growth ([1]; GCV 50 mg/kg daily i.p.): stops teratoma growth | teratoma dormancy ([1]; brief (3 week) GCV treatment period): sufficient to render the teratomas dormant | teratoma dormancy [2]: rendered the teratomas to dormancy | mammary gland tumor dormancy [3]: able to render the mammary gland tumors to dormancy | killing of dividing NEPs [4]: killed the dividing NEPs | killing of non-dividing neurons [4]: did not kill the non-dividing neurons

C[C@H]1c2cccc(O)c2C(=O)C2=C(O)[C@]3(O)C(=O)C(C(N)=O)=C(O)[C@@H](N(C)C)[C@@H]3[C@@H](O)[C@@H]21 [doxycycline]
time to complete elimination of mitotically active ES cells [5]: ≤ 5 days | time to complete elimination of mitotically active ES cells (Top2a-EARC ES cells): ≤ 4 days | time to complete elimination of mitotically active ES cells (Cenpa-EARC ES cells): ≤ 4 days | time to complete elimination of mitotically active ES cells (Birc5-EARC ES cells): ≤ 4 days | time to complete elimination of mitotically active ES cells (Eef2-EARC ES cells): ≤ 4 days

Bms1
CS score (CRISPR score average provided in Wang et al., 2015) ([6]; gene locus (predicted CDL), CRISPR score average): −1.36

Ppan
CS score ([6]; CRISPR score average provided in Wang et al., 2015, score of the gene locus (predicted CDL)): −1.62

Source: patent US20180044686A1, “TOOLS AND METHODS FOR USING CELL DIVISION LOCI TO CONTROL PROLIFERATION OF CELLS” (Sinai Health System, priority 2015, published 2018)
